Patent publication US7119208B2, “Anti-sickling agents” (Virginia Commonwealth University, priority 2003, dated 2006)
“And” between values parts separate entries of the source, which are not always exact repeats. Equal values may be shown once. “Also recorded” adds a separate entry of the source.

Experiments:
AA cells = test: Oxygen equilibrium studies with normal whole blood; format: cell-based, human; details: for n50 (Hill coefficient at 50% saturation in the presence of compound) / ΔP50 = P50d − P50c / P50d (value in the presence of compound): thiophene aldehydes, 5 mM, whole blood; for P50d (value in the presence of compound): repeat measurements; for P50: AA cells 40% hematocrit; for effect on the OEC of whole blood: normal adult whole blood, multi-point tonometry, in vitro
SS cells [1] = test: Antisickling studies with homozygous sickle red blood cells; format: cell-based, human; details: for predicted antisickling activities: not determined, predicted from structure-activity relationships
SS cells [2] = test: Oxygen equilibrium studies with homozygous sickle red blood cells; format: cell-based, human; details: 5 mM compound; for SS cells P50: SS cells 10% hematocrit; for SS cells ΔP50: treated minus control
Method: SS cells were suspended in PBS to a final hematocrit of 10%. […] A 40 uL aliquot of this suspension was added to 4 ml Hemox buffer and subjected to oxygen equilibrium analysis (37° C.) using a Hemox-Analyzer (TCS Scientific Corp., Southampton, Pa.) (Asakura, 1979).

HbS [3] = molecular target: T1, HbS (Homo sapiens, UniProt P68871+P69905, E7V); test: Oxygen equilibrium analysis of hemolysate from compound-treated SS cells; format: cell-based; details: hemolysate after incubation of 5 mM compound with SS cells; for Hemolysate ΔP50: treated minus control
T1 construct: The compound-treated SS cells obtained in the preceding experiment (oxygen equilibrium studies with SS cells) were hemolyzed; endogenous in cells; host or cells: homozygous sickle red blood (SS) cells from patients with SCD; hemolysate of the compound-treated cells

HbS [4] = molecular target: T1, HbS; test: HbS adduct formation, cation-exchange HPLC of hemolysate from compound-treated SS cells; format: cell-based; details: 5 mM compound, HPLC of hemolysate after incubation with SS cells
SS cells [5] = test: Antisickling studies with homozygous sickle red blood cells; format: cell-based, human; details: for inhibition at 5000 µM: Homo sapiens, Erythrocyte, read-out: Inhibition of sickling of SS cells
Method: Briefly, SS cells suspended in buffered saline solution, pH 7.4 (hematocrit of 10 %) were incubated at 37° C. with 4% oxygen in the presence of 5 mM compound. Aliquots (10 ul) of the suspensions were obtained after 5 hrs and fixed with 2% glutaraldehyde solution without exposure to air. Morphological analysis and percentage of SS cells that were not sickled were conducted using a computer-assisted image analysis system as described elsewhere (Hijiya, 1991).

SS cells [6] = test: Effect of compounds on homozygous sickle red blood cell size (MCV); format: cell-based, human; details: for changes in cell volumes of SS cells: 1, 2, and 5 mM compound
Method: To study the effect of the compounds on the degree of hydration/dehydration of SS cells, the compound-treated SS cells obtained in the preceding experiment (antisickling studies with SS cells) were evaluated with a Hemavet Cell Analyzer to determine the mean corpuscular volume (MCV).

Tg sickle mice = test: In vivo antisickling effect in transgenic sickle mice exposed to hypoxia; details: 5% oxygen
Text: In vivo antisickling effect of 5-HMF was investigated using transgenic (Tg) mice that produce human Hb S. Since the blood of wild type mice has an extremely right-shifted OEC (P50 of mouse blood: 40–44 mm Hg) as compared with the OEC of human blood (P50 of AA cells: 26.5 mm Hg; SS cells: 32 mm Hg), Tg sickle mice that produce approximately equal amounts of human and mouse […] and 100% human β^s-globin were used in this study. The P50 of these mice are between 26 and 34 mm Hg depending on the percentage of mouse β-globin. We used 5% oxygen (5% O2, 95% N2), because they develop pulmonary sequestration almost exclusively upon exposure of these mice to 5% O2. […] Upon exposure to hypoxia, we determine the percentage of sickled cells in the blood as well as the survival time. […] In the hypoxia experiments, the Tg sickle mice were exposed to hypoxia for up to 1 hr; any surviving mice at 1 hr were euthanized by cervical dislocation under anesthesia. In all cases, after the mouse died, it was immediately dissected. The heart, lungs, brain, liver, spleen, and kidneys were fixed in 10% phosphate-buffered formalin. Tissue samples were embedded in paraffin according to standard methods. Sections were cut and stained by a hematoxylin-eosin solution for light microscopy.

Hb [7] = molecular target: T2, Hb (Homo sapiens, UniProt P69905); test: Co-crystallization of compounds with Hb, X-ray crystallography; format: binding; parameters: Purified human adult Hb in 50 mM Bis Tris buffer, pH 6.8, was prepared from discarded human blood; from tissue; host or cells: discarded human blood; Hb purified in house as in Safo and Abraham, 2003; details: deoxy Hb
patients with SCD = details: cited from earlier work; for clinical toxicity: human, in vivo
Hb [8] = molecular target: T2, Hb; details: Schiff base with N-terminal Val1 of T state Hb; cited from earlier work
[9] = cited from earlier work
[10] = 5 mM compound, P50 of treated AA cells minus P50 of control
[11] = 5 mM compound, 4% oxygen, 10% hematocrit, 5 hrs

Cc1ccsc1C=O [3-Methyl-2-thiophenecarboxyaldehyde]
n50 (Hill coefficient at 50% saturation in the presence of compound) (AA cells): 2.35
ΔP50 = P50d − P50c (AA cells): −7.01 mmHg
P50d (value in the presence of compound) (AA cells): 21.55 mmHg and 20.63 mmHg

O=Cc1cc(Br)cs1 [4-Bromo-2-thiophenecarboxyaldehyde]
n50 (Hill coefficient at 50% saturation in the presence of compound) (AA cells): 2.41
ΔP50 = P50d − P50c (AA cells): −10.56 mmHg
P50d (value in the presence of compound) (AA cells): 16.85 mmHg and 17.49 mmHg

O=Cc1ccc(Br)s1 [5-Bromo-2-thiophenecarboxyaldehyde]
n50 (Hill coefficient at 50% saturation in the presence of compound) (AA cells): 2.35
ΔP50 = P50d − P50c (AA cells): −6.63 mmHg
P50d (value in the presence of compound) (AA cells): 21.96 mmHg and 20.24 mmHg

CCc1ccc(C=O)o1 [Compound 5EF, 5-Ethyl-2-furfuraldehyde]
n50 (Hill coefficient at 50% saturation) (AA cells; 5 mM compound): 1.77 ± 0.14
P50 (AA cells; 5 mM compound, 37° C.): 10.13 ± 0.75 mmHg
ΔP50 (AA cells; [10]): −15.71 mmHg
predicted antisickling activities (SS cells [1]): lie between those of FUF and 5HMF

O=Cc1ccc(CO)o1 [Compound 5HMF, 5-hydroxymethyl-2-furfuraldehyde]
n50 (Hill coefficient at 50% saturation) (AA cells; 1 mM compound): 2.08 ± 0.14
ΔP50 (AA cells; 1 mM compound): −6.65 mmHg
P50 (AA cells; 1 mM compound): 19.19 ± 1.51 mmHg
n50 (Hill coefficient at 50% saturation) (AA cells; 2 mM compound): 1.98 ± 0.08
ΔP50 (AA cells; 2 mM compound): −10.80 mmHg
P50 (AA cells; 2 mM compound): 15.04 ± 0.51 mmHg
n50 (Hill coefficient at 50% saturation) (AA cells; 5 mM compound): 1.88 ± 0.06
P50 (AA cells; 5 mM compound, 37° C.): 8.32 ± 0.40 mmHg
ΔP50 (AA cells; [10]): −17.52 mmHg
effect on the OEC of whole blood (AA cells): able to shift the OEC to the left
SS cells P50 (SS cells [2]): 6.0 ± 1.2 mmHg
SS cells ΔP50 (SS cells [2]): −25.2 mmHg
Hemolysate P50 (HbS [3]): 1.8 ± 0.3 mmHg
Hemolysate ΔP50 (HbS [3]): −9.4 mmHg
HbS adduct (HbS [4]): 70% and 70 ± 10.0%
inhibition of cell sickling, times more than FUF (SS cells [5]; 5 mM): ~2.5 times
Inhibition of sickling of SS cells (SS cells [5]; [11]): 90%
Sickling of SS cells (SS cells [5]; [11]): 10%
MCV (SS cells [6]; 1 mM compound): 62.5 fL
MCV (SS cells [6]; 2 mM compound): 61.0 fL
MCV (SS cells [6]; 5 mM compound): 61.4 fL
changes in cell volumes of SS cells (SS cells [6]): did not result in changes in cell volumes
percentage of sickled cells in the arterial blood (Tg sickle mice; 5HMF 100 mg/kg): reduced the formation of POSCs; also recorded: reduced the percentage of sickled cells
survival of more than half of the mice (Tg sickle mice; 5HMF pretreatment): > 25 min
survival time under hypoxia compared to control (Tg sickle mice; 5HMF pretreatment): significantly prolonged the survival time; also recorded: prolonged the survival time significantly; also recorded: about four times longer
Inhibition of sickling of SS cells (SS cells [1]; 1 mM compound, 4% oxygen): 13%
Sickling of SS cells (SS cells [1]; 1 mM compound, 4% oxygen): 87%
Inhibition of sickling of SS cells (SS cells [1]; 2 mM compound, 4% oxygen): 42%
Sickling of SS cells (SS cells [1]; 2 mM compound, 4% oxygen): 58%
compound binding in T state co-crystals (Hb [7]): only weak binding

Cc1ccc(C=O)o1 [Compound 5MF, 5-Methyl-2-furfuraldehyde]
n50 (Hill coefficient at 50% saturation) (AA cells; 5 mM compound): 1.70 ± 0.06
P50 (AA cells; 5 mM compound, 37° C.): 9.68 ± 0.24 mmHg
ΔP50 (AA cells; [10]): −16.16 mmHg
predicted antisickling activities (SS cells [1]): lie between those of FUF and 5HMF

O=Cc1c(O)cccc1OCCCCC(=O)O [Compound 12C79]
clinical toxicity (patients with SCD): clinically non-toxic
compound-Hb adducts (patients with SCD; intravenous infusion 40 mg/kg, patients with SCD): more than 30%

Cc1cc(C=O)cc(C)c1O [DMHB, 3,5-dimethyl-4-hydroxybenzaldehyde]
shift of the OEC (Hb [8]): shift the OEC toward the left

O=Cc1ccc(O)c(C(=O)O)c1 [FSA, 5-formylsalicylic acid]
shift of the OEC (Hb [8]): shift the OEC toward the right

O=Cc1ccco1 [FUF, 2-furfuraldehyde]
n50 (Hill coefficient at 50% saturation) (AA cells; 5 mM compound): 2.30 ± 0.01
P50 (AA cells; 5 mM compound, 37° C.): 14.49 ± 0.06 mmHg
ΔP50 (AA cells; [10]): −11.35 mmHg
SS cells P50 (SS cells [2]): 15.4 ± 1.7 mmHg
SS cells ΔP50 (SS cells [2]): −15.8 mmHg
Hemolysate P50 (HbS [3]): 5.3 ± 0.6 mmHg
Hemolysate ΔP50 (HbS [3]): −5.9 mmHg
HbS adduct (HbS [4]): 24% and 24 ± 5.7%
Sickling of SS cells (SS cells [5]; [11]): 70%
inhibition at 5000 µM (SS cells [5]; [11]): 30%
MCV (SS cells [6]; 1 mM compound): 60.3 fL
MCV (SS cells [6]; 2 mM compound): 60.0 fL
MCV (SS cells [6]; 5 mM compound): 62.8 fL
changes in cell volumes of SS cells (SS cells [6]): did not result in changes in cell volumes
Sickling of SS cells (SS cells [1]; 1 mM compound, 4% oxygen): 100%
Sickling of SS cells (SS cells [1]; 2 mM compound, 4% oxygen): 100%
inhibition at 1000 µM (SS cells [1]; Homo sapiens, Erythrocyte, 1 mM compound, 4% oxygen, read-out: Inhibition of sickling of SS cells): 0%
inhibition at 2000 µM (SS cells [1]; Homo sapiens, Erythrocyte, 2 mM compound, 4% oxygen, read-out: Inhibition of sickling of SS cells): 0%
compound binding in T state co-crystals (Hb [7]): only weak binding

CCOC(=O)C1CSC(c2ccc(CO)o2)N1 (stereo not shown) [MSDD1, 5-hydroxymethyl-2-furfural-thiazolidine-4-carboxylic acid ethyl ester]
effect on the OEC of whole blood (AA cells): does not have effect on the OEC

COc1cc(C=O)ccc1O [Vanillin, vanillin, reference compound]
n50 (Hill coefficient at 50% saturation) (AA cells; 5 mM compound): 1.98 ± 0.23
P50 (AA cells; 5 mM compound, 37° C.): 19.06 ± 1.98 mmHg
ΔP50 (AA cells; [10]): −6.78 mmHg
SS cells P50 (SS cells [2]): 17.7 ± 2.2 mmHg
SS cells ΔP50 (SS cells [2]): −13.5 mmHg
Sickling of SS cells (SS cells [5]; [11]): 80%
inhibition at 5000 µM (SS cells [5]; [11]): 20%
MCV (SS cells [6]; 5 mM compound): 61.0 fL
acute oral LD50 ([9]; species not stated): 1580 mg/kg
LD50 ([9]; unit taken from the 5HMF value in the same sentence): 1580 mg/kg
clinical toxicity (patients with SCD): clinically non-toxic
